Test results published in US20080058579A1, “Compositions and methods for treating disease utilizing a combination of radioactive therapy and cell-cycle inhibitors” (Angiotech International AG, priority 1999, published 2008).

Test system: PC3 human prostate cells
Test: In vivo treatment model using a locally administered cell cycle inhibitor with local radiation
Conditions: FIG. 16; for percent reduction in tumor volume: one week after treatment
Description: This animal model is used to determine the effectiveness of a locally administered cell cycle inhibitor (e.g., paclitaxel) in conjunction with a locally administered radiation source in treating a proliferative disease, specifically, a cancer. The relative change in tumor volume measured in tumor bearing mice receiving various treatments will be used to gauge the therapy's effectiveness relative to use of local radiation alone or locally administered cell cycle inhibitor alone.
The methods used are as follows. Cancer cells (specifically PC3) human prostate cells, American Type Culture Collection, Rockville Md.) are maintained in DMEM solution with 5% heat-inactivated fetal calf serum. Male SCID mice are inoculated with approximately 1×10^6 cells subcutaneously in the flank region. The tumor injection sites are followed by visual inspection or palpation. Tumor volume is measured using calipers. The tumor is allowed to grow until it reaches a treatable volume of 100-200 mm^3.
At this time the mice are treated as follows. Approximately six brachytherapy seeds are implanted adjacent to the tumor to deliver a local radiation dose of 25-40 Gy (I^125 radiation source). A polymeric paste (100 μl) containing 50 μg paclitaxel (0.5% w/w) is injected subcutaneously adjacent to or into the tumor. The following treatment groups were studied (10 mice per group). 1) Control paste without paclitaxel and non-radioactive (cold) seeds. 2) Control paste and radioactive seeds. 3) 0.5% w/w paclitaxel loaded paste and cold seeds. 4) 0.5% w/w paclitaxel loaded paste and radioactive seeds.
Tumor size is measured at twice-weekly intervals using calipers. An investigator blinded to the experimental groups will conduct the measurements. Caliper measured dimensions may be taken in two (length (L), width (W)) or three dimensions (Height (H)). […]
The animal data are analyzed as follows. The means and standard deviations of the tumor measurements are determined and plotted from the initial day of caliper measurement until the final measurement. […]

CC(=O)O[C@H]1C(=O)[C@@]2(C)[C@H]([C@H](OC(=O)c3ccccc3)[C@]3(O)C[C@H](OC(=O)[C@H](O)[C@@H](NC(=O)c4ccccc4)c4ccccc4)C(C)=C1C3(C)C)[C@]1(OC(C)=O)CO[C@@H]1C[C@@H]2O [paclitaxel]
tumor volume (one week after treatment with locally administered radiation (I-125) and locally administered paclitaxel, n=9 per treatment): decreased
percent reduction in tumor volume (only one of the two treatments (paclitaxel alone)): lesser reduction
percent reduction in tumor volume (paclitaxel paste (0.5% w/w) and I-125 seeds given in combination): greatest
